These molecules were tested against T1, human CB2R (Homo sapiens, UniProt P34972) (assay: CB2R mediated modulation of cAMP synthesis). Settings: found through the use of the above described assays (binding and cAMP); CHO cells expressing human CB2R, forskolin-stimulated cAMP.
T1 construct: host or cells: CHO cells
Assay type: cell-based
Description: B. CB2R Mediated Modulation of cAMP Synthesis:
CHO cells expressing human CB2R (Euroscreen) were plated at a density of 5000 cells per well in 384 well plates and incubated overnight at 37° C. After removing the media, the cells were treated with test compounds diluted in stimulation buffer containing 1 mM IBMX, 0.25% BSA and 10 uM Forskolin. The assay was incubated for 30 minutes at 37° C. Cells were lysed and the cAMP concentration was measured using DiscoverX -XS cAMP kit, following the manufacturer's protocol. In this setting, agonists will decrease forskolin induced production of cAMP while inverse agonists will further increase forskolin induced production of cAMP. EC50 of agonists were calculated as follows. The maximal amount of cAMP produced by forskolin compared to the level of cAMP inhibited by 1 uM CP55940 is defined as 100%. The EC50 value of each test compound was determined as the concentration at which 50% of the forskolin-stimulated cAMP synthesis was inhibited. Data was analyzed using a four-parameter logistic model. (Model 205 of XLfit 4.0).

T1 sequence (P34972 whole entry): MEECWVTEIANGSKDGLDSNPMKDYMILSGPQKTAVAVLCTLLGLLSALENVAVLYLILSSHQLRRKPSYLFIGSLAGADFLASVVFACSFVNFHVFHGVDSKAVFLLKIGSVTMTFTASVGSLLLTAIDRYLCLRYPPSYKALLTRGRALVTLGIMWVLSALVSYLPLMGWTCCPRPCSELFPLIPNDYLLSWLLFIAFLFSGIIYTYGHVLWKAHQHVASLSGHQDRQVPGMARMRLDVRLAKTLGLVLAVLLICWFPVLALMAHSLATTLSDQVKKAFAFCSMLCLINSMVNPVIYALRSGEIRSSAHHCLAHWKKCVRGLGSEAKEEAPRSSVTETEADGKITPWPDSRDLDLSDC

Question: `CC(C)(C)Cc1cc(NC(=O)C(C)(C)S(=O)(=O)c2ccc(Cl)cc2)on1` was tested. Which agonistic activity did it give?
Answer: Its agonistic activity is “agonistic activity”.

Question: How did the agonistic activity turn out when `CC(C)(C)c1cc(NC(=O)C(C)(C)S(=O)(=O)c2ccc[n+]([O-])c2)no1` was run?
Answer: The agonistic activity was “agonistic activity”.

Question: With `Cc1nc(NC(=O)C2(S(=O)(=O)c3ccc(Cl)cc3)CCC2)sc1C(C)(C)C` [1-(4-Chloro-benzenesulfonyl)-cyclobutanecarboxylic acid (5-tert-butyl-4-methyl-thiazol-2-yl)-amide] as the molecule, how does the agonistic activity read?
Answer: The agonistic activity was “agonistic activity”.

Question: How did the agonistic activity turn out when `CC(C)(C)c1cc(NC(=O)C2(S(=O)(=O)c3ccc(Cl)cc3)CCC2)no1` [1-(4-Chloro-benzenesulfonyl)-cyclobutanecarboxylic acid (5-tert-butyl-isoxazol-3-yl)-amide] was run?
Answer: Its agonistic activity is “agonistic activity”.

Question: `CC(C)(C)c1cnc(NC(=O)C2(S(=O)(=O)c3ccc(Cl)cc3)CCC2)s1` [1-(4-Chloro-benzenesulfonyl)-cyclobutanecarboxylic acid (5-tert-butyl-thiazol-2-yl)-amide] was tested. Which agonistic activity did it give?
Answer: Its agonistic activity is “agonistic activity”.

Question: Which agonistic activity does the source give for `Cn1nc(-c2ccccc2)cc1NC(=O)C1(S(=O)(=O)c2ccc(Cl)cc2)CC1` [1-(4-Chloro-benzenesulfonyl)-cyclopropanecarboxylic acid (2-methyl-5-phenyl-2H-pyrazol-3-yl)-amide] here?
Answer: Its agonistic activity is “agonistic activity”.

Question: How did the agonistic activity turn out when `CC(C)(C)c1csc(NC(=O)C2(S(=O)(=O)c3ccc(Cl)cc3)CC2)n1` [1-(4-Chloro-benzenesulfonyl)-cyclopropanecarboxylic acid (4-tert-butyl-thiazol-2-yl)-amide] was run?
Answer: Its agonistic activity is “agonistic activity”.

Question: `O=C(Nc1cc(C(F)(F)F)ccn1)C1(S(=O)(=O)c2ccc(Cl)cc2)CC1` [1-(4-Chloro-benzenesulfonyl)-cyclopropanecarboxylic acid (4-trifluoromethyl-pyridin-2-yl)-amide] was tested. Which agonistic activity did it give?
Answer: The agonistic activity was “agonistic activity”.

Question: For `Cn1nc(C(C)(C)C)cc1NC(=O)C1(S(=O)(=O)c2ccc(Cl)cc2)CC1` [1-(4-Chloro-benzenesulfonyl)-cyclopropanecarboxylic acid (5-tert-butyl-2-methyl-2H-pyrazol-3-yl)-amide], which agonistic activity is on record?
Answer: Its agonistic activity is “agonistic activity”.

Question: With `CC(C)(C)c1cc(NC(=O)C2(S(=O)(=O)c3ccc(Cl)cc3)CC2)[nH]n1` [1-(4-Chloro-benzenesulfonyl)-cyclopropanecarboxylic acid (5-tert-butyl-2H-pyrazol-3-yl)-amide] as the molecule, how does the agonistic activity read?
Answer: The agonistic activity was “agonistic activity”.

Question: For `Cc1nc(NC(=O)C2(S(=O)(=O)c3ccc(Cl)cc3)CC2)sc1C(C)(C)C` [1-(4-Chloro-benzenesulfonyl)-cyclopropanecarboxylic acid (5-tert-butyl-4-methyl-thiazol-2-yl)-amide], which agonistic activity is on record?
Answer: The agonistic activity was “agonistic activity”.

Question: Which agonistic activity does the source give for `CC(C)(C)c1cc(NC(=O)C2(S(=O)(=O)c3ccc(Cl)cc3)CC2)no1` [1-(4-Chloro-benzenesulfonyl)-cyclopropanecarboxylic acid (5-tert-butyl-isoxazol-3-yl)-amide] here?
Answer: The agonistic activity was “agonistic activity”.

Question: With `O=C(Nc1ccc(C(F)(F)F)cn1)C1(S(=O)(=O)c2ccc(Cl)cc2)CC1` [1-(4-Chloro-benzenesulfonyl)-cyclopropanecarboxylic acid (5-trifluoromethyl-pyridin-2-yl)-amide] as the molecule, how does the agonistic activity read?
Answer: Its agonistic activity is “agonistic activity”.

Question: `Cc1nc(NC(=O)C2(S(=O)(=O)c3ccc(C(F)(F)F)cc3)CCC2)sc1C(C)(C)C` [1-(4-Trifluoromethyl-benzenesulfonyl)-cyclobutanecarboxylic acid (5-tert-butyl-4-methyl-thiazol-2-yl)-amide] was tested. Which agonistic activity did it give?
Answer: Its agonistic activity is “agonistic activity”.

Question: For `CC(C)(C)c1cc(NC(=O)C2(S(=O)(=O)c3ccc(C(F)(F)F)cc3)CCC2)no1` [1-(4-Trifluoromethyl-benzenesulfonyl)-cyclobutanecarboxylic acid (5-tert-butyl-isoxazol-3-yl)-amide], which agonistic activity is on record?
Answer: The agonistic activity was “agonistic activity”.

Question: `CC(C)(C)c1cnc(NC(=O)C2(S(=O)(=O)c3ccc(C(F)(F)F)cc3)CCC2)s1` [1-(4-Trifluoromethyl-benzenesulfonyl)-cyclobutanecarboxylic acid (5-tert-butyl-thiazol-2-yl)-amide] was tested. Which agonistic activity did it give?
Answer: Its agonistic activity is “agonistic activity”.

Question: Which agonistic activity does the source give for `CC(C)(C)c1csc(NC(=O)C2(S(=O)(=O)c3ccc(C(F)(F)F)cc3)CC2)n1` [1-(4-Trifluoromethyl-benzenesulfonyl)-cyclopropanecarboxylic acid (4-tert-butyl-thiazol-2-yl)-amide] here?
Answer: Its agonistic activity is “agonistic activity”.

Question: `O=C(Nc1cc(C(F)(F)F)ccn1)C1(S(=O)(=O)c2ccc(C(F)(F)F)cc2)CC1` [1-(4-Trifluoromethyl-benzenesulfonyl)-cyclopropanecarboxylic acid (4-trifluoromethyl-pyridin-2-yl)-amide] was tested. Which agonistic activity did it give?
Answer: Its agonistic activity is “agonistic activity”.

Question: How did the agonistic activity turn out when `Cn1nc(C(C)(C)C)cc1NC(=O)C1(S(=O)(=O)c2ccc(C(F)(F)F)cc2)CC1` [1-(4-Trifluoromethyl-benzenesulfonyl)-cyclopropanecarboxylic acid (5-tert-butyl-2-methyl-2H-pyrazol-3-yl)-amide] was run?
Answer: Its agonistic activity is “agonistic activity”.

Question: Which agonistic activity does the source give for `Cc1nc(NC(=O)C2(S(=O)(=O)c3ccc(C(F)(F)F)cc3)CC2)sc1C(C)(C)C` [1-(4-Trifluoromethyl-benzenesulfonyl)-cyclopropanecarboxylic acid (5-tert-butyl-4-methyl-thiazol-2-yl)-amide] here?
Answer: Its agonistic activity is “agonistic activity”.

Question: Which agonistic activity does the source give for `CC(C)(C)c1cc(NC(=O)C2(S(=O)(=O)c3ccc(C(F)(F)F)cc3)CC2)no1` [1-(4-Trifluoromethyl-benzenesulfonyl)-cyclopropanecarboxylic acid (5-tert-butyl-isoxazol-3-yl)-amide] here?
Answer: Its agonistic activity is “agonistic activity”.

Question: With `O=C(Nc1ccc(C(F)(F)F)cn1)C1(S(=O)(=O)c2ccc(C(F)(F)F)cc2)CC1` [1-(4-Trifluoromethyl-benzenesulfonyl)-cyclopropanecarboxylic acid (5-trifluoromethyl-pyridin-2-yl)-amide] as the molecule, how does the agonistic activity read?
Answer: Its agonistic activity is “agonistic activity”.

Question: With `O=C(Nc1cccc(C(F)(F)F)n1)C1(S(=O)(=O)c2ccc(C(F)(F)F)cc2)CC1` [1-(4-Trifluoromethyl-benzenesulfonyl)-cyclopropanecarboxylic acid (6-trifluoromethyl-pyridin-2-yl)-amide] as the molecule, how does the agonistic activity read?
Answer: Its agonistic activity is “agonistic activity”.

Question: Which agonistic activity does the source give for `Cn1nc(-c2ccccc2)cc1NC(=O)C(C)(C)S(=O)(=O)c1ccc(F)cc1F` [2-(2,4-Difluoro-benzenesulfonyl)-2-methyl-N-(2-methyl-5-phenyl-2H-pyrazol-3-yl)-propionamide] here?
Answer: Its agonistic activity is “agonistic activity”.

Question: Which agonistic activity does the source give for `CC(C)(C(=O)Nc1nc(-c2ccccn2)cs1)S(=O)(=O)c1ccc(F)cc1F` [2-(2,4-Difluoro-benzenesulfonyl)-2-methyl-N-(4-pyridin-2-yl-thiazol-2-yl)-propionamide] here?
Answer: The agonistic activity was “agonistic activity”.

Question: `CC(C)(C(=O)Nc1nc(-c2cccnc2)cs1)S(=O)(=O)c1ccc(F)cc1F` [2-(2,4-Difluoro-benzenesulfonyl)-2-methyl-N-(4-pyridin-3-yl-thiazol-2-yl)-propionamide] was tested. Which agonistic activity did it give?
Answer: The agonistic activity was “agonistic activity”.

Question: `CC(C)(C(=O)Nc1cccc2ccccc12)S(=O)(=O)c1ccc(F)cc1F` [2-(2,4-Difluoro-benzenesulfonyl)-2-methyl-N-naphthalen-1-yl-propionamide] was tested. Which agonistic activity did it give?
Answer: The agonistic activity was “agonistic activity”.

Question: With `CC(C)(C(=O)Nc1cnc2ccccc2c1)S(=O)(=O)c1ccc(F)cc1F` [2-(2,4-Difluoro-benzenesulfonyl)-2-methyl-N-quinolin-3-yl-propionamide] as the molecule, how does the agonistic activity read?
Answer: Its agonistic activity is “agonistic activity”.

Question: With `CC(C)(C(=O)Nc1cc2ccccc2cn1)S(=O)(=O)c1ccc(F)cc1F` [2-(2,4-Difluoro-benzenesulfonyl)-N-isoquinolin-3-yl-2-methyl-propionamide] as the molecule, how does the agonistic activity read?
Answer: The agonistic activity was “agonistic activity”.

Question: `CC(C)(C(=O)Nc1ccc(C(F)(F)F)cn1)S(=O)(=O)c1cc(F)ccc1F` [2-(2,5-Difluoro-benzenesulfonyl)-2-methyl-N-(5-trifluoromethyl-pyridin-2-yl)-propionamide] was tested. Which agonistic activity did it give?
Answer: Its agonistic activity is “agonistic activity”.

Question: `CC(C)(C(=O)Nc1cccc(C(F)(F)F)n1)S(=O)(=O)c1cc(F)ccc1F` [2-(2,5-Difluoro-benzenesulfonyl)-2-methyl-N-(6-trifluoromethyl-pyridin-2-yl)-propionamide] was tested. Which agonistic activity did it give?
Answer: The agonistic activity was “agonistic activity”.

Question: `Cc1ccc(S(=O)(=O)C(C)(C)C(=O)Nc2ccc(C(F)(F)F)cn2)c(F)c1` [2-(2-Fluoro-4-methyl-benzenesulfonyl)-2-methyl-N-(5-trifluoromethyl-pyridin-2-yl)-propionamide] was tested. Which agonistic activity did it give?
Answer: The agonistic activity was “agonistic activity”.

Question: With `CC(C)(C(=O)Nc1ccc(C(F)(F)F)cn1)S(=O)(=O)c1ccccc1F` [2-(2-Fluoro-benzenesulfonyl)-2-methyl-N-(5-trifluoromethyl-pyridin-2-yl)-propionamide] as the molecule, how does the agonistic activity read?
Answer: The agonistic activity was “agonistic activity”.

Question: `COc1ccc(S(=O)(=O)C(C)(C)C(=O)Nc2ccc(C(F)(F)F)cn2)cc1F` [2-(3-Fluoro-4-methoxy-benzenesulfonyl)-2-methyl-N-(5-trifluoromethyl-pyridin-2-yl)-propionamide] was tested. Which agonistic activity did it give?
Answer: The agonistic activity was “agonistic activity”.

Question: `COc1ccc(S(=O)(=O)C(C)(C)C(=O)Nc2cccc(C(F)(F)F)n2)cc1F` [2-(3-Fluoro-4-methoxy-benzenesulfonyl)-2-methyl-N-(6-trifluoromethyl-pyridin-2-yl)-propionamide] was tested. Which agonistic activity did it give?
Answer: Its agonistic activity is “agonistic activity”.

Question: For `Cc1ccc(S(=O)(=O)C(C)(C)C(=O)Nc2ccc(C(F)(F)F)cn2)cc1F` [2-(3-Fluoro-4-methyl-benzenesulfonyl)-2-methyl-N-(5-trifluoromethyl-pyridin-2-yl)-propionamide], which agonistic activity is on record?
Answer: The agonistic activity was “agonistic activity”.

Source: US8299111B2, “Compounds which modulate the CB2 receptor” (Boehringer Ingelheim International GmbH, priority 2006, dated 2012)
